{"source": "patent US20240238250A1", "about": "“METHOD OF USING PIROMELATINE FOR TREATING PARASOMNIAS ASSOCIATED WITH LOSS OF REM SLEEP ATONIA” (NEURIM PHARMACEUTICALS (1991) LTD., priority 2023, published 2024)", "key": {"[1]": {"tested_on": "patients with primary insomnia", "assay": "REM sleep EEG spectral power after 4-week treatment, 3-arm parallel group study versus placebo", "format": "in vivo, human", "conditions": "for REM EEG spectral power, Alpha power ([8; 13] Hz) / REM EEG spectral power, Beta1 power ([15.5; 20.5] Hz) / REM EEG spectral power, Beta2 power ([20.5; 25.5] Hz) / REM EEG spectral power, Beta3 power ([25.5; 32] Hz) / REM EEG spectral power, Beta power ([15.5; 32] Hz) / REM EEG spectral power, Delta power ([0.5; 4] Hz) / REM EEG spectral power, Sigma power ([11.5; 15.5] Hz) / REM EEG spectral power, Theta power ([4; 8] Hz) / REM EEG spectral power, Total EEG power ([0.5; 32] Hz): 4 wks, whole night sleep", "experimental": "(§1) REM sleep EEG power was calculated to evaluate the effects of chronic (4-week) administration of 20 mg and 50 mg piromelatine compared to those of placebo in patients with primary insomnia. Sleep EEG was recorded in 9 different centers in the frame of a 3-arm parallel group study with a random allocation of patients to one of the three treatment group (i.e., of the 121 patients who had exploitable sleep EEG data, 42 received placebo, 39 received piromelatine 20 mg, and 40 received piromelatine 50 mg).\n(§2) Spectral power was calculated for all-night) and REM sleep for the total EEG spectrum [0.5; 32] Hz and in the following frequency bands: delta [0.5; 4] Hz, theta [4; 8] Hz, alpha [8; 13] Hz, sigma [11.5; 15.5] Hz, beta [15.5; 32] Hz, beta1 [15.5; 20.5] Hz, beta2 [20.5; 25.5] Hz, and beta3 [25.5; 32] Hz.\nNote, REM sleep is longest during the third part of the night."}, "[2]": {"tested_on": "patients with primary insomnia", "assay": "NREM sleep EEG spectral power after 4-week treatment, 3-arm parallel group study versus placebo", "format": "in vivo, human", "conditions": "4-wks treatment, 20 and 50 mg; compared to baseline and to placebo", "experimental": "as §1, with “NREM” for “REM”\nas §2, with “NREM” for “REM”"}}, "note": "“Also recorded” adds a separate entry of the source."}
{"smiles": "COc1ccc2[nH]cc(CCNC(=O)c3cc(=O)cco3)c2c1", "note": "[Piromelatine, N-(2-(5-methoxy-1H-indol-3-yl)ethyl)-4-oxo-4H-pyran-2-carboxamide]", "values": [{"measurement": "effect on REM sleep alpha power band (in words)", "setting": "[1]; 4-wks treatment, 20 and 50 mg, compared to baseline and to placebo, in particular during the longest REM period in the third part of the night sleep", "value": "increases the spectral power in the a band during REM sleep; also recorded: enhances the REM sleep alpha power band"}, {"measurement": "effect on other frequencies during REM sleep (in words)", "setting": "[1]; patients with insomnia aged 20-80 years", "value": "minor or no changes in other frequencies"}, {"measurement": "REM EEG spectral power, Alpha power ([8; 13] Hz)", "setting": "[1]; piromelatine 20 mg, n = 39", "value": "103.36 % of baseline values"}, {"measurement": "REM EEG spectral power, Beta1 power ([15.5; 20.5] Hz)", "setting": "[1]; piromelatine 20 mg, n = 39", "value": "100.36 % of baseline values"}, {"measurement": "REM EEG spectral power, Beta2 power ([20.5; 25.5] Hz)", "setting": "[1]; piromelatine 20 mg, n = 39", "value": "98.51 % of baseline values"}, {"measurement": "REM EEG spectral power, Beta3 power ([25.5; 32] Hz)", "setting": "[1]; piromelatine 20 mg, n = 39", "value": "97.56 % of baseline values"}, {"measurement": "REM EEG spectral power, Beta power ([15.5; 32] Hz)", "setting": "[1]; piromelatine 20 mg, n = 39", "value": "98.95 % of baseline values"}, {"measurement": "REM EEG spectral power, Delta power ([0.5; 4] Hz)", "setting": "[1]; piromelatine 20 mg, n = 39", "value": "100.29 % of baseline values"}, {"measurement": "REM EEG spectral power, Sigma power ([11.5; 15.5] Hz)", "setting": "[1]; piromelatine 20 mg, n = 39", "value": "100.34 % of baseline values"}, {"measurement": "REM EEG spectral power, Theta power ([4; 8] Hz)", "setting": "[1]; piromelatine 20 mg, n = 39", "value": "101.45 % of baseline values"}, {"measurement": "REM EEG spectral power, Total EEG power ([0.5; 32] Hz)", "setting": "[1]; piromelatine 20 mg, n = 39", "value": "99.76 % of baseline values"}, {"measurement": "REM EEG spectral power, Beta1 power ([15.5; 20.5] Hz)", "setting": "[1]; piromelatine 50 mg, n = 40", "value": "98.19 % of baseline values"}, {"measurement": "REM EEG spectral power, Beta2 power ([20.5; 25.5] Hz)", "setting": "[1]; piromelatine 50 mg, n = 40", "value": "99.93 % of baseline values"}, {"measurement": "REM EEG spectral power, Beta3 power ([25.5; 32] Hz)", "setting": "[1]; piromelatine 50 mg, n = 40", "value": "97.73 % of baseline values"}, {"measurement": "REM EEG spectral power, Beta power ([15.5; 32] Hz)", "setting": "[1]; piromelatine 50 mg, n = 40", "value": "99.55 % of baseline values"}, {"measurement": "REM EEG spectral power, Delta power ([0.5; 4] Hz)", "setting": "[1]; piromelatine 50 mg, n = 40", "value": "103.73 % of baseline values"}, {"measurement": "REM EEG spectral power, Sigma power ([11.5; 15.5] Hz)", "setting": "[1]; piromelatine 50 mg, n = 40", "value": "103.14 % of baseline values"}, {"measurement": "REM EEG spectral power, Theta power ([4; 8] Hz)", "setting": "[1]; piromelatine 50 mg, n = 40", "value": "105.03 % of baseline values"}, {"measurement": "REM EEG spectral power, Total EEG power ([0.5; 32] Hz)", "setting": "[1]; piromelatine 50 mg, n = 40", "value": "105.33 % of baseline values"}, {"measurement": "REM EEG spectral power, Alpha power ([8; 13] Hz)", "setting": "[1]; piromelatine 50 mg, n = 40, * significant difference (P < 0.05) compared to placebo", "value": "106.55* % of baseline values"}, {"measurement": "effect on NREM low frequency band (0.5-1.5 Hz) (in words)", "setting": "[2]", "value": "can increase the NREM low frequency band"}]}
